Experiments:
[1] = tested on: PBMC from ragweed-allergic donors (allergen-specific CD4 T cells); assay: Ex vivo human T cell-proliferation assay, ragweed extracts (short and giant); type: cell-based; settings: PBMC of two ragweed-allergic donors, short and giant ragweed extract, 7 days culture, FIG. 2B
[2] = tested on: PBMC from allergic donors (T cells, ConA pan-T cell mitogen); assay: T cell proliferative responses induced by ConA; type: cell-based, human; settings: specificity control
[3] = tested on: PBMC from HDM-allergic donors (allergen-specific CD4 T cells); assay: Ex vivo human T cell-proliferation assay, house dust mite extracts (Der p, Der f); type: cell-based; settings: PBMC of four HDM-allergic donors, Der p or Der f extract, 7 days culture, FIG. 1B
[4] = tested on: invariant chain (Ii) degradation by cathepsin S in PBMC; assay: Monitoring cathepsin S inhibition in human blood: p10Ii fragment accumulation (Western blot); type: cell-based; settings: PBMC from human blood, incubation for 24 h, SDS-PAGE / Western blot

## CC(C)C[C@H](NC(=O)N1CCOCC1)C(=O)N[C@H](/C=C/S(=O)(=O)c1ccccc1)CCc1ccccc1 [LHVS, 4-morpholinecarboxamide, N-[(1S)-3-methyl-1-[[[(1S,2E)-1-(2-phenylethyl)-3-(phenylsulfonyl)-2-propenyl]amino]carbonyl]butyl]-]
[1]
  T cell proliferation (3H-thymidine incorporation) induced by ragweed extracts: strongly inhibited
[2]; HDM-allergic donors
  T cell proliferative responses induced by ConA: not affected
[2]; ragweed-allergic donors
  T cell proliferative responses induced by ConA: not affected
[3]
  T cell proliferation (3H-thymidine incorporation) induced by HDM extracts: strongly inhibited
[4]
  p10Ii fragment of invariant chain (block in degradation of Ii): the p10Ii fragment was seen

From patent US6579896B2, “Method for treating allergies using substituted pyrazoles” (Ortho-McNeil Pharmaceutical, Inc., priority 2000, dated 2003)
